Test results: PubChem BioAssay (NCI)
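Five compound concentrations were applied to cells in 96-well plates for 48 hours; endpoints were derived by simple linear interpolation of the resulting dose-response curve. GI50 = concentration required for 50% inhibition of growth. TGI: total growth inhibition.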

Tests used:
Experiment in all cases: DTP human tumour cell line panel, 48 h
[1] = test system: RPMI-8226 leukemia
[2] = test system: ACHN renal
[3] = test system: MALME-3M melanoma
[4] = test system: U251 CNS
[5] = test system: A498 renal
[6] = test system: OVCAR-4 ovarian
[7] = test system: MDA-MB-435
[8] = test system: SNB-19 CNS
[9] = test system: MOLT-4 leukemia
[10] = test system: UO-31 renal
[11] = test system: COLO 205 colon
[12] = test system: K-562 leukemia
[13] = test system: OVCAR-8 ovarian
[14] = test system: A549 NSCLC
[15] = test system: UACC-62 melanoma
[16] = test system: OVCAR-3 ovarian
[17] = test system: SR leukemia
[18] = test system: HL-60(TB) leukemia
[19] = test system: SK-OV-3 ovarian
[20] = test system: PC-3 prostate
[21] = test system: MDA-MB-231 breast
[22] = test system: DU-145 prostate
[23] = test system: HT29 colon
[24] = test system: CAKI-1 renal
[25] = test system: M14 melanoma
[26] = test system: IGROV1 ovarian
[27] = test system: OVCAR-5 ovarian
[28] = test system: NCI-H23 lung
[29] = test system: HOP-92 NSCLC
[30] = test system: T-47D breast
[31] = test system: 786-0 renal
[32] = test system: RXF 393 renal
[33] = test system: HCC-2998 colon
[34] = test system: NCI-H522 lung
[35] = test system: EKVX NSCLC
[36] = test system: TK-10 renal
[37] = test system: NCI-H226 lung
[38] = test system: SK-MEL-5 melanoma
[39] = test system: HCT-116 colon
[40] = test system: SNB-75 CNS
[41] = test system: SF-295 CNS
[42] = test system: HCT-15 colon
[43] = test system: CCRF-CEM leukemia
[44] = test system: NCI-H460 lung
[45] = test system: UACC-257 melanoma
[46] = test system: SK-MEL-28 melanoma
[47] = test system: HS 578T breast
[48] = test system: MCF7 breast
[49] = test system: NCI/ADR-RES ovarian
[50] = test system: BT-549 breast
[51] = test system: HOP-62 NSCLC
[52] = test system: SW-620 colon
[53] = test system: KM12 colon
[54] = test system: SN12C renal
[55] = test system: SF-268 CNS
[56] = test system: LOX IMVI melanoma
[57] = test system: SF-539 CNS

With `O=C1c2ccccc2C(=O)c2c(Nc3ccc(CCO)cc3)ccc(O)c21` the GI50 [1] was 5.49 µM, the TGI [1] was 36.5 µM and the GI50 [2] was 4.3 µM. The TGI [2] was 45.2 µM, the GI50 [3] was 12.8 µM and the TGI [3] was 58 µM. For the same compound, the GI50 [4] was 8.33 µM, the TGI [4] was 85.8 µM and the GI50 [5] was 16.4 µM. The TGI [5] was 40.2 µM, the GI50 [6] was 9.13 µM and the TGI [6] was greater than 100 µM. For the same compound, the GI50 [7] was 22.6 µM, the TGI [7] was greater than 100 µM and the GI50 [8] was 23 µM. The TGI [8] was 72.2 µM, the GI50 [9] was 10.7 µM and the TGI [9] was greater than 100 µM. The GI50 [10] was 2200 nM, the TGI [10] was 26.9 µM and the GI50 [11] was 4.86 µM. It also gave a TGI [11] of 21.7 µM, a GI50 [12] of 18.4 µM and a TGI [12] greater than 100 µM. It also gave a GI50 [13] of 17.4 µM, a TGI [13] greater than 100 µM and a GI50 [14] of 6.43 µM. For the same compound, the TGI [14] was greater than 100 µM, the GI50 [15] was 10.2 µM and the TGI [15] was 32.3 µM. It also gave a GI50 [16] of 13.2 µM, a TGI [16] greater than 100 µM and a GI50 [17] of 7.71 µM. It also gave a TGI [17] greater than 100 µM, a GI50 [18] of 25.6 µM and a TGI [18] greater than 100 µM. The GI50 [19] was 11 µM, the TGI [19] was 64.8 µM and the GI50 [20] was 6.34 µM. It also gave a TGI [20] of 25.5 µM, a GI50 [21] of 3.3 µM and a TGI [21] of 24.9 µM. For the same compound, the GI50 [22] was 7.67 µM, the TGI [22] was 42.7 µM and the GI50 [23] was 4.09 µM. It also gave a TGI [23] of 14.9 µM, a GI50 [24] of 6.81 µM and a TGI [24] greater than 100 µM. For the same compound, the GI50 [25] was 12.9 µM, the TGI [25] was 61.4 µM and the GI50 [26] was 1410 nM. For the same compound, the TGI [26] was 32.6 µM, the GI50 [27] was 21.1 µM and the TGI [27] was 62.6 µM. It also gave a GI50 [28] of 17.3 µM, a TGI [28] of 88.7 µM and a GI50 [29] of 4.52 µM. For the same compound, the TGI [29] was 26.3 µM, the GI50 [30] was 987 nM and the TGI [30] was 26.1 µM. For the same compound, the GI50 [31] was 17.2 µM, the TGI [31] was 60.1 µM and the GI50 [32] was 6.54 µM. The TGI [32] was 23.7 µM, the GI50 [33] was 9.42 µM and the TGI [33] was 28.3 µM. The GI50 [34] was 3.56 µM, the TGI [34] was 16.7 µM and the GI50 [35] was 4.69 µM. The TGI [35] was greater than 100 µM, the GI50 [36] was 21.8 µM and the TGI [36] was greater than 100 µM. For the same compound, the GI50 [37] was 14.8 µM, the TGI [37] was 48.9 µM and the GI50 [38] was 11.7 µM. The TGI [38] was 33.5 µM, the GI50 [39] was 8.71 µM and the TGI [39] was greater than 100 µM. The GI50 [40] was 5.09 µM, the TGI [40] was 29 µM and the GI50 [41] was 11.8 µM. The TGI [41] was 47.4 µM, the GI50 [42] was 4.28 µM and the TGI [42] was 38.7 µM. For the same compound, the GI50 [43] was 3.61 µM, the TGI [43] was 30.7 µM and the GI50 [44] was 3.57 µM. For the same compound, the TGI [44] was 15.1 µM, the GI50 [45] was 20.3 µM and the TGI [45] was 70.7 µM. It also gave a GI50 [46] of 12.3 µM, a TGI [46] of 55.2 µM and a GI50 [47] of 3.52 µM. The TGI [47] was 48 µM, the GI50 [48] was 504 nM and the TGI [48] was 36.4 µM. For the same compound, the GI50 [49] was 17.6 µM, the TGI [49] was 94.4 µM and the GI50 [50] was 9.82 µM. It also gave a TGI [50] of 68.5 µM, a GI50 [51] of 21.4 µM and a TGI [51] of 45.9 µM. It also gave a GI50 [52] of 6.69 µM, a TGI [52] of 67.5 µM and a GI50 [53] of 4.74 µM. The TGI [53] was 36.3 µM, the GI50 [54] was 16.9 µM and the TGI [54] was greater than 100 µM. It also gave a GI50 [55] of 11 µM, a TGI [55] greater than 100 µM and a GI50 [56] of 3.15 µM. It also gave a TGI [56] of 14.5 µM, a GI50 [57] of 10.2 µM and a TGI [57] of 27.3 µM.
